Converted amounts (≈) assume the structure as drawn. Read-outs that look alike come from different tables or passages of the source.
What was measured:
Experiment in all cases: In vitro antibacterial activity, broth microdilution MIC90
Assay type in all cases: cell-based
[1] = test system: Vancomycin Resistant Enterococcus faecalis
Summary of the method: (§1)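 Antibacterial testing used the CLSI M7-A5 dilution method for aerobic bacteria across twelve strains, including resistant staphylococcal and enterococcal isolates. Final drug levels of 0.063 μg/mL up to 128 μg/mL were tested; linezolid was included for comparison.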

Enterococcus faecium = test system: Enterococcus faecium
Summary of the method: as §1

Enterococcus faecalis = test system: Enterococcus faecalis
Summary of the method: as §1

[2] = test system: Staphylococcus epidermidis
Summary of the method: as §1

[3] = test system: Vancomycin Resistant Enterococcus faecium
Summary of the method: as §1

[4] = test system: Linezolid and Vancomycin Resistant Enterococcus faecalis
Summary of the method: as §1

Staphylococcus aureus = test system: Staphylococcus aureus
Summary of the method: as §1

[5] = test system: Linezolid and Vancomycin Resistant Enterococcus faecium (strain 10)
Summary of the method: as §1

[6] = test system: Linezolid and Vancomycin Resistant Enterococcus faecium (strain 11)
Summary of the method: as §1

Moraxella catarrhalis = test system: Moraxella catarrhalis
Summary of the method: as §1

[7] = test system: Methicillin Resistant Staphylococcus epidermidis
Summary of the method: as §1

[8] = test system: Methicillin Resistant Staphylococcus aureus
Summary of the method: as §1

[9] = Enterococcus faecalis, strain 6, E. faecalis VanA, read-out: MIC90
[10] = Enterococcus faecium, strain 8, E. faecium, read-out: MIC90
[11] = Enterococcus faecalis, strain 5, E. faecalis, read-out: MIC90
[12] = Staphylococcus epidermidis, strain 3, S. epidermidis, read-out: MIC90
[13] = Enterococcus faecium, strain 9, E. faecium VanA, read-out: MIC90
[14] = Enterococcus faecalis, strain 7, E. faecalis VanA LR, read-out: MIC90
[15] = Staphylococcus aureus, strain 1, S. aureus, read-out: MIC90
[16] = Enterococcus faecium, strain 10, E. faecium VanA LR, read-out: MIC90
[17] = Enterococcus faecium, strain 11, E. faecium VanA LR, read-out: MIC90
[18] = Moraxella catarrhalis, strain 12, M. catarrhalis, read-out: MIC90
[19] = Staphylococcus epidermidis, strain 4, S. epidermidis MR, read-out: MIC90
[20] = Staphylococcus aureus, strain 2, S. aureus MR, read-out: MIC90

COC(=O)NC[C@H]1CN(c2ccc(-c3ccc(N4C=NOCC4)nc3)c(F)c2)C(=O)O1 [Compound 59]
MIC90 [1, 9]: 0.5 µg/mL (≈ 1.16 µM)
MIC90 (Enterococcus faecium; [10]): 0.25 µg/mL (≈ 0.582 µM)
MIC90 (Enterococcus faecalis; [11]): 0.5 µg/mL (≈ 1.16 µM)
MIC90 [2, 12]: 0.25 µg/mL (≈ 0.582 µM)
MIC90 [3, 13]: 0.25 µg/mL (≈ 0.582 µM)
MIC90 [4, 14]: 4 µg/mL (≈ 9.32 µM)
MIC90 (Staphylococcus aureus; [15]): 0.25 µg/mL (≈ 0.582 µM)
MIC90 [5, 16]: 4 µg/mL (≈ 9.32 µM)
MIC90 [6, 17]: 4 µg/mL (≈ 9.32 µM)
MIC90 (Moraxella catarrhalis; [18]): 2 µg/mL (≈ 4.66 µM)
MIC90 [7, 19]: 1 µg/mL (≈ 2.33 µM)
MIC90 [8, 20]: 0.5 µg/mL (≈ 1.16 µM)

CNC(=O)N1CCN(c2ccc(-c3ccc(N4C[C@H](Cn5ccnn5)OC4=O)cc3F)cn2)C=N1 [Compound 34]
MIC90 ([1]; Enterococcus faecalis): 0.5 µg/mL (≈ 1.04 µM)
MIC90 (Enterococcus faecium; Enterococcus faecium): 0.25 µg/mL (≈ 0.521 µM)
MIC90 (Enterococcus faecalis; Enterococcus faecalis): 0.5 µg/mL (≈ 1.04 µM)
MIC90 ([2]; Staphylococcus epidermidis): 0.5 µg/mL (≈ 1.04 µM)
MIC90 ([3]; Enterococcus faecium): 0.5 µg/mL (≈ 1.04 µM)
MIC90 ([4]; Enterococcus faecalis): 2 µg/mL (≈ 4.17 µM)
MIC90 (Staphylococcus aureus; Staphylococcus aureus): 0.25 µg/mL (≈ 0.521 µM)
MIC90 ([5]; Enterococcus faecium): 2 µg/mL (≈ 4.17 µM)
MIC90 ([6]; Enterococcus faecium): 4 µg/mL (≈ 8.34 µM)
MIC90 (Moraxella catarrhalis; Moraxella catarrhalis): 2 µg/mL (≈ 4.17 µM)
MIC90 ([7]; Staphylococcus epidermidis): 1 µg/mL (≈ 2.09 µM)
MIC90 ([8]; Staphylococcus aureus): 0.5 µg/mL (≈ 1.04 µM)

CC(=O)NC[C@H]1CN(c2ccc(-c3ccc(N4C=NOCC4)nc3)c(F)c2)C(=O)O1 [Compound 57]
MIC90 [1, 9]: 0.25 µg/mL (≈ 0.605 µM)
MIC90 (Enterococcus faecium; [10]): 0.125 µg/mL (≈ 0.302 µM)
MIC90 (Enterococcus faecalis; [11]): 0.25 µg/mL (≈ 0.605 µM)
MIC90 [2, 12]: 0.25 µg/mL (≈ 0.605 µM)
MIC90 [3, 13]: 0.125 µg/mL (≈ 0.302 µM)
MIC90 [4, 14]: 1 µg/mL (≈ 2.42 µM)
MIC90 (Staphylococcus aureus; [15]): 0.25 µg/mL (≈ 0.605 µM)
MIC90 [5, 16]: 1 µg/mL (≈ 2.42 µM)
MIC90 [6, 17]: 2 µg/mL (≈ 4.84 µM)
MIC90 (Moraxella catarrhalis; [18]): 2 µg/mL (≈ 4.84 µM)
MIC90 [7, 19]: 0.5 µg/mL (≈ 1.21 µM)
MIC90 [8, 20]: 0.5 µg/mL (≈ 1.21 µM)

NCC(=O)N1CCN(c2ccc(-c3ccc(N4C[C@H](CNc5ccon5)OC4=O)cc3F)cn2)C=N1 [Compound 42]
MIC90 ([1]; strain 6, E. faecalis VanA): 1 µg/mL (≈ 2.02 µM)
MIC90 (Enterococcus faecium; strain 8, E. faecium): 0.125 µg/mL (≈ 0.253 µM)
MIC90 (Enterococcus faecalis; strain 5, E. faecalis): 0.5 µg/mL (≈ 1.01 µM)
MIC90 ([2]; strain 3, S. epidermidis): 0.5 µg/mL (≈ 1.01 µM)
MIC90 ([3]; strain 9, E. faecium VanA): 0.5 µg/mL (≈ 1.01 µM)
MIC90 ([4]; strain 7, E. faecalis VanA LR): 2 µg/mL (≈ 4.04 µM)
MIC90 (Staphylococcus aureus; strain 1, S. aureus): 0.25 µg/mL (≈ 0.506 µM)
MIC90 ([5]; strain 10, E. faecium VanA LR): 4 µg/mL (≈ 8.09 µM)
MIC90 ([6]; strain 11, E. faecium VanA LR): 4 µg/mL (≈ 8.09 µM)
MIC90 (Moraxella catarrhalis; strain 12, M. catarrhalis): 2 µg/mL (≈ 4.04 µM)
MIC90 ([7]; strain 4, S. epidermidis MR): 2 µg/mL (≈ 4.04 µM)
MIC90 ([8]; strain 2, S. aureus MR): 0.5 µg/mL (≈ 1.01 µM)

O=C(C(O)CO)N1CCN(c2ccc(-c3ccc(N4C[C@H](CNc5ccon5)OC4=O)cc3F)cn2)C=N1 (stereo partly drawn) [Compound 43]
MIC90 ([1]; strain 6, E. faecalis VanA): 1 µg/mL (≈ 1.9 µM)
MIC90 (Enterococcus faecium; strain 8, E. faecium): 0.25 µg/mL (≈ 0.476 µM)
MIC90 (Enterococcus faecalis; strain 5, E. faecalis): 0.5 µg/mL (≈ 0.951 µM)
MIC90 ([2]; strain 3, S. epidermidis): 1 µg/mL (≈ 1.9 µM)
MIC90 ([3]; strain 9, E. faecium VanA): 0.5 µg/mL (≈ 0.951 µM)
MIC90 ([4]; strain 7, E. faecalis VanA LR): 2 µg/mL (≈ 3.81 µM)
MIC90 (Staphylococcus aureus; strain 1, S. aureus): 0.25 µg/mL (≈ 0.476 µM)
MIC90 ([5]; strain 10, E. faecium VanA LR): 4 µg/mL (≈ 7.61 µM)
MIC90 ([6]; strain 11, E. faecium VanA LR): 4 µg/mL (≈ 7.61 µM)
MIC90 (Moraxella catarrhalis; strain 12, M. catarrhalis): 2 µg/mL (≈ 3.81 µM)
MIC90 ([7]; strain 4, S. epidermidis MR): 2 µg/mL (≈ 3.81 µM)
MIC90 ([8]; strain 2, S. aureus MR): 0.5 µg/mL (≈ 0.951 µM)

O=C(O)CN1CCN(c2ccc(-c3ccc(N4C[C@H](COc5ccon5)OC4=O)cc3F)cn2)C=N1 [Compound 51]
MIC90 ([1]; strain 6, E. faecalis VanA): 4 µg/mL (≈ 8.06 µM)
MIC90 (Enterococcus faecium; strain 8, E. faecium): 1 µg/mL (≈ 2.01 µM)
MIC90 (Enterococcus faecalis; strain 5, E. faecalis): 4 µg/mL (≈ 8.06 µM)
MIC90 ([2]; strain 3, S. epidermidis): 1 µg/mL (≈ 2.01 µM)
MIC90 ([3]; strain 9, E. faecium VanA): 4 µg/mL (≈ 8.06 µM)
MIC90 ([4]; strain 7, E. faecalis VanA LR): 16 µg/mL (≈ 32.2 µM)
MIC90 (Staphylococcus aureus; strain 1, S. aureus): 0.5 µg/mL (≈ 1.01 µM)
MIC90 ([5]; strain 10, E. faecium VanA LR): 32 µg/mL (≈ 64.5 µM)
MIC90 ([6]; strain 11, E. faecium VanA LR): 32 µg/mL (≈ 64.5 µM)
MIC90 (Moraxella catarrhalis; strain 12, M. catarrhalis): >128 µg/mL
MIC90 ([7]; strain 4, S. epidermidis MR): 4 µg/mL (≈ 8.06 µM)
MIC90 ([8]; strain 2, S. aureus MR): 1 µg/mL (≈ 2.01 µM)

Cl.O=C1O[C@@H](CNc2ccon2)CN1c1ccc(-c2ccc(N3C=NNCC3)nc2)c(F)c1 [Compound 39]
MIC90 ([1]; strain 6, E. faecalis VanA): 1 µg/mL
MIC90 (Enterococcus faecium; strain 8, E. faecium): 0.25 µg/mL
MIC90 (Enterococcus faecalis; strain 5, E. faecalis): 0.5 µg/mL
MIC90 ([2]; strain 3, S. epidermidis): 1 µg/mL
MIC90 ([3]; strain 9, E. faecium VanA): 1 µg/mL
MIC90 ([4]; strain 7, E. faecalis VanA LR): 4 µg/mL
MIC90 (Staphylococcus aureus; strain 1, S. aureus): 0.25 µg/mL
MIC90 ([5]; strain 10, E. faecium VanA LR): 4 µg/mL
MIC90 ([6]; strain 11, E. faecium VanA LR): 4 µg/mL
MIC90 (Moraxella catarrhalis; strain 12, M. catarrhalis): 2 µg/mL
MIC90 ([7]; strain 4, S. epidermidis MR): 2 µg/mL
MIC90 ([8]; strain 2, S. aureus MR): 0.5 µg/mL

O=C1O[C@@H](Cn2ccnn2)CN1c1ccc(-c2ccc(N3C=NNCC3)nc2)c(F)c1 [Compound 30]
MIC90 ([1]; Enterococcus faecalis): 1 µg/mL (≈ 2.37 µM)
MIC90 (Enterococcus faecium; Enterococcus faecium): 0.25 µg/mL (≈ 0.592 µM)
MIC90 (Enterococcus faecalis; Enterococcus faecalis): 0.5 µg/mL (≈ 1.18 µM)
MIC90 ([2]; Staphylococcus epidermidis): 0.5 µg/mL (≈ 1.18 µM)
MIC90 ([3]; Enterococcus faecium): 0.5 µg/mL (≈ 1.18 µM)
MIC90 ([4]; Enterococcus faecalis): 4 µg/mL (≈ 9.47 µM)
MIC90 (Staphylococcus aureus; Staphylococcus aureus): 0.25 µg/mL (≈ 0.592 µM)
MIC90 ([5]; Enterococcus faecium): 2 µg/mL (≈ 4.73 µM)
MIC90 ([6]; Enterococcus faecium): 2 µg/mL (≈ 4.73 µM)
MIC90 (Moraxella catarrhalis; Moraxella catarrhalis): 4 µg/mL (≈ 9.47 µM)
MIC90 ([7]; Staphylococcus epidermidis): 2 µg/mL (≈ 4.73 µM)
MIC90 ([8]; Staphylococcus aureus): 1 µg/mL (≈ 2.37 µM)

Source: US8846669B2, “Oxazolidinone derivative and medical composition containing same” (Legochem Biosciences, Inc., priority 2011, dated 2014)
